Reference: the supplement of paper PMC10307832

Assays:
Test in all cases: relative viability (nuclei count vs DMSO), 5 days (fraction); higher = more cells survive
[1] = compound: CS(=O)(=O)c1ccc(-c2cnc(N)c(C(=O)Nc3ccccc3)n2)cc1 [VE-821] + Nc1nc2[nH]cc(CCc3ccc(C(=O)N[C@@H](CCC(=O)O)C(=O)O)cc3)c2c(=O)[nH]1 [Pemetrexed] (partner 0.2 µM)
In short: (§1)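 After 5 days of treatment, lung cancer cells in 1536-well plates were fixed and stained in a single step (final 0.05% Triton X-100, 1% formaldehyde, 1 ug/ml Hoechst) and their nuclei counted on 4× images. Treatment had been applied by pin tool the day after seeding as one drug alone or as a fixed anchor-drug dose with five library-drug doses (not always all listed) in √10 steps. Relative viability is the nuclei count of treated wells divided by that of vehicle wells, and values are medians of duplicate plates.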

[2] = compound: CS(=O)(=O)c1ccc(C(=O)Nc2ccc(Cl)c(-c3ccccn3)c2)c(Cl)c1 [Vismodegib] + COc1cc2c(Oc3ccc(NC(=O)C4(C(=O)Nc5ccc(F)cc5)CC4)cc3F)ccnc2cc1OCCCN1CCOCC1 [Foretinib] (partner 0.25 µM)
In short: as §1

[3] = compound: CS(=O)(=O)c1ccc(C(=O)Nc2ccc(Cl)c(-c3ccccn3)c2)c(Cl)c1 [Vismodegib] + CS(=O)(=O)N1CCN(Cc2cc3nc(-c4cccc5[nH]ncc45)nc(N4CCOCC4)c3s2)CC1 [Pictilisib] (partner 1 µM)
In short: as §1

[4] = compound: N#CC[C@H](C1CCCC1)n1cc(-c2ncnc3[nH]ccc23)cn1 [Ruxolitinib] + Cc1nc(NC(=O)N2CCC[C@H]2C(N)=O)sc1-c1ccnc(C(C)(C)C(F)(F)F)c1 [Alpelisib] (partner 2 µM)
In short: as §1

Cell Line | relative viability ([1]; first compound 0.08 µM) | relative viability ([1]; first compound 0.253 µM) | relative viability ([1]; first compound 0.8 µM) | relative viability ([1]; first compound 2.53 µM) | relative viability ([1]; first compound 8 µM) | relative viability ([2]; first compound 0.08 µM) | relative viability ([2]; first compound 0.253 µM) | relative viability ([2]; first compound 0.8 µM) | relative viability ([2]; first compound 2.53 µM) | relative viability ([2]; first compound 8 µM) | relative viability ([3]; first compound 0.08 µM) | relative viability ([3]; first compound 0.253 µM) | relative viability ([3]; first compound 0.8 µM) | relative viability ([3]; first compound 2.53 µM) | relative viability ([3]; first compound 8 µM) | relative viability ([4]; first compound 0.08 µM) | relative viability ([4]; first compound 0.253 µM) | relative viability ([4]; first compound 0.8 µM) | relative viability ([4]; first compound 2.53 µM) | relative viability ([4]; first compound 8 µM)
HCC-78 | 0.875 | 0.904 | 0.903 | 0.853 | 0.89 | 0.515 | 0.538 | 0.511 | 0.593 | 0.532 | 0.19 | 0.189 | 0.176 | 0.206 | 0.234 | 0.289 | 0.249 | 0.308 | 0.277 | 0.337
HCC-366 | 0.159 | 0.127 | 0.144 | 0.0815 | 0.06 | 0.893 | 0.925 | 0.877 | 0.956 | 0.864 | 0.16 | 0.17 | 0.148 | 0.137 | 0.131 | 0.349 | 0.322 | 0.366 | 0.36 | 0.46
HCC-827 | 0.248 | 0.306 | 0.251 | 0.23 | 0.213 | 0.995 | 1.03 | 0.972 | 1.01 | 0.866 | 1.22 | 1.06 | 0.834 | 0.854 | 0.97 | – | 0.679 | 0.72 | 0.794 | 0.887
HOP-62 | 0.305 | 0.336 | 0.244 | 0.235 | 0.223 | 1.1 | 1.03 | 1.1 | 1.07 | 1.1 | 0.751 | 0.703 | 0.759 | 0.815 | 0.656 | – | 0.813 | 1.05 | 0.96 | 0.723
IA-LM | – | – | – | – | – | 1.2 | 1.15 | 1.28 | 1.04 | 1.2 | 0.363 | 0.354 | 0.277 | 0.281 | 0.379 | 0.676 | 0.849 | 0.959 | 0.584 | 0.679
LC-2-ad | 0.265 | 0.286 | 0.272 | 0.264 | 0.24 | 0.924 | 0.848 | 0.893 | 0.847 | 1.02 | 0.49 | 0.503 | 0.513 | 0.643 | 0.421 | 0.895 | 0.848 | 0.934 | 0.734 | 0.567
LCLC-97TM1 | 0.191 | 0.186 | 0.164 | 0.189 | 0.125 | 0.953 | 0.934 | 0.869 | 0.97 | 0.912 | – | – | 0.125 | – | 0.158 | 0.215 | 0.204 | 0.275 | 0.235 | 0.327
LCLC-103H | 0.47 | 0.439 | 0.518 | 0.475 | 0.437 | 0.747 | 0.758 | 0.73 | 0.756 | 0.776 | 0.606 | 0.533 | 0.574 | 0.633 | 0.646 | 1.02 | 0.875 | 1.08 | 1.03 | 1.02
LK-2 | 0.357 | 0.295 | 0.299 | 0.267 | 0.262 | 1.14 | 0.974 | 1.13 | 1.34 | 1.38 | 0.648 | 0.619 | 0.515 | 0.551 | 0.602 | – | 0.992 | 1.27 | 0.971 | 1.43
LOU-NH91 | 0.385 | 0.355 | 0.345 | 0.323 | 0.4 | 0.943 | 0.925 | 0.905 | 0.867 | 0.912 | 0.556 | 0.515 | 0.516 | 0.482 | 0.532 | 0.569 | 0.674 | 0.796 | 0.736 | 0.694
LU99A | 0.191 | 0.156 | 0.16 | 0.125 | 0.113 | 0.866 | 0.775 | 0.751 | 0.725 | 0.79 | 0.319 | 0.39 | 0.256 | 0.313 | 0.324 | 0.532 | 0.456 | 0.523 | 0.523 | 0.412
NCI-H522 | 1.28 | 1 | 0.909 | 1.16 | 0.778 | – | – | – | – | – | – | – | – | – | – | – | – | – | – | –
NCI-H727 | – | – | – | – | – | 0.973 | 0.867 | 0.896 | 0.761 | 0.792 | 0.525 | 0.395 | 0.277 | 0.257 | 0.402 | 0.604 | 0.597 | 0.874 | 0.749 | 0.338
NCI-H1299 | – | – | – | – | – | 1.06 | 1.11 | 1.13 | 1.07 | 1.09 | 0.761 | 0.815 | 0.72 | 0.787 | 0.96 | 1.05 | 1.08 | 1.05 | 0.949 | 0.996
NCI-H1623 | – | – | – | – | – | 0.805 | 0.927 | 0.914 | 0.822 | 0.864 | – | – | – | – | – | – | – | – | – | –
NCI-H1648 | 0.977 | – | 0.569 | 0.63 | 0.611 | – | – | – | – | – | – | – | – | – | – | – | – | – | – | –
NCI-H1650 | 0.344 | 0.355 | 0.289 | 0.386 | 0.307 | 1.08 | 0.938 | 1.13 | 1.07 | 1.21 | 0.557 | 0.587 | 0.558 | 0.529 | 0.639 | – | – | – | – | –
NCI-H1703 | – | – | – | – | – | 0.383 | 0.344 | 0.379 | 0.336 | 0.316 | 0.223 | 0.216 | 0.302 | 0.254 | 0.249 | 0.316 | 0.343 | 0.382 | 0.19 | 0.283
NCI-H1792 | 1.19 | 0.59 | 0.865 | 0.996 | 0.568 | – | – | – | – | – | 0.28 | 0.299 | 0.23 | 0.227 | 0.28 | 0.652 | 0.687 | 0.651 | 0.515 | 0.714
NCI-H2342 | 0.792 | 0.777 | 0.804 | 0.736 | 0.667 | 0.984 | 1.04 | 1.06 | 0.949 | 0.947 | – | – | – | – | – | – | – | – | – | –
SW 900 | 0.494 | 0.504 | 0.461 | 0.46 | 0.221 | 0.743 | 0.622 | 0.761 | 0.655 | 0.857 | – | – | – | – | – | – | – | – | – | –
